Measured values taken from paper PMC9120017, “Inhibition mechanism of the chloride channel TMEM16A by the pore blocker 1PBC” (Nature Communications, 2022).
Like-named read-outs stand apart in the source and are kept apart here.

Target: T1, mouse TMEM16A mutant V543A (Mus musculus, UniProt Q8BHY3, V543A)
T1 construct: expressed in transfected cells; host or cells: HEK293T
T1 sequence (Q8BHY3 1-960 V543A): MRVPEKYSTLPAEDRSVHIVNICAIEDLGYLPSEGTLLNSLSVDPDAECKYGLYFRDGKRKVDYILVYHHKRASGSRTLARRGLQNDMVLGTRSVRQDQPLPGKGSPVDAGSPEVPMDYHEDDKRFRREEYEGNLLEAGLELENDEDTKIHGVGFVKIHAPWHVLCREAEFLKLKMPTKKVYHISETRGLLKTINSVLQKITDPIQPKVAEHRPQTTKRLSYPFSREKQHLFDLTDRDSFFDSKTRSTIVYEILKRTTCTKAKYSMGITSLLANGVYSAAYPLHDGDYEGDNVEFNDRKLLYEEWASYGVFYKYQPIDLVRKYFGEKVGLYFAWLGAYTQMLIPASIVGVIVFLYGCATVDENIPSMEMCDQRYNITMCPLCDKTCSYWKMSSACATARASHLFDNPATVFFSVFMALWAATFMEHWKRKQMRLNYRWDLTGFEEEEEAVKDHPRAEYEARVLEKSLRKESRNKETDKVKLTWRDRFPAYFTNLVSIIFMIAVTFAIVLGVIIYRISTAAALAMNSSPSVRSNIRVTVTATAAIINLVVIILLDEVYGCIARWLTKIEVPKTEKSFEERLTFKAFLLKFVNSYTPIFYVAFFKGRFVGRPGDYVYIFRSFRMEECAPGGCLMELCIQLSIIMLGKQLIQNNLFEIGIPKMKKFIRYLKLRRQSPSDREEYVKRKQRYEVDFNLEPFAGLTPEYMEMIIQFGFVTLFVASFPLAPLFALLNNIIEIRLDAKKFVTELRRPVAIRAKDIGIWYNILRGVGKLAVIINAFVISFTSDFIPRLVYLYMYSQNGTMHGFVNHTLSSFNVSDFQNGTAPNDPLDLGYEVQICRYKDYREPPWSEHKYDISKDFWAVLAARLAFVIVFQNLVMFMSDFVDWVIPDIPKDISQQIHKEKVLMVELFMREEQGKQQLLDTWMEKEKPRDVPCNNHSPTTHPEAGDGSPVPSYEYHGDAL
Test: Inside-out patch recording of 1PBC block, mutant V543A
Assay type: cell-based
Conditions: for remaining activity at 30 µM: 1PBC 30; for remaining activity at 30 µM / remaining activity at 100 µM: read-out: fraction of unblocked current; for remaining activity at 100 µM: 1PBC 100
Procedure: HEK293T cells (ATCC CRL-1573) were maintained in Dulbecco’s modified Eagle’s medium (DMEM; Sigma-Aldrich) supplemented with 10 U ml^−1 penicillin, 0.1 mg ml^−1 streptomycin (Sigma-Aldrich), 2 mM L-glutamine (Sigma-Aldrich), and 10% FBS (Sigma-Aldrich) in a humidified atmosphere containing 5% CO2 at 37 °C. HEK293S GnTI^− cells (ATCC CRL-3022) were maintained in HyClone HyCell TransFx-H medium (GE Healthcare) supplemented with 10 U ml^−1 penicillin, 0.1 mg ml^−1 streptomycin, 4 mM L-glutamine, 0.15% poloxamer 188 (Sigma-Aldrich), and 1% FBS in an atmosphere containing 5% CO2 at 185 rpm at 37 °C. The ac splice variant of mouse TMEM16A (UniProt ID: Q8BHY3), mouse TMEM16B (UniProt ID: Q8CFW1), or mouse TMEM16F (UniProt ID: Q6P9J9) bearing a 3C cleavage site, a Venus YFP, a Myc tag, and a Streptavidin-binding peptide (SBP) downstream of the open reading frame in a modified pcDNA3.1 vector (Invitrogen) were used as described previously[21],[31]. Mutations were introduced using a modified QuikChange method[58] and were verified by sequencing.
HEK293T cells were transfected with 3–4 μg DNA per 6 cm Petri dish using the calcium phosphate co-precipitation method and were used within 24–96 h after transfection. Recordings were performed on inside-out patches excised from HEK293T cells expressing the construct of interest. Patch pipettes were pulled from borosilicate glass capillaries (O.D. 1.5 mm, I.D. 0.86 mm, Sutter Instrument) and were fire-polished with a microforge (Narishige) before use. Pipette resistance was typically 3–8 MΩ when filled with the recording solutions detailed below. Seal resistance was typically 4 GΩ or higher. Voltage-clamp recordings were made using Axopatch 200B, Digidata 1550, and Clampex 10.7 (Molecular Devices). Analog signals were filtered with the in-built 4-pole Bessel filter at 10 kHz and were digitized at 20 kHz. Solution exchange was achieved using a gravity-fed system through a theta glass pipette mounted on an ultra-fast piezo-driven stepper (Siskiyou). […] All recordings were performed at 20 °C.
A symmetrical ionic condition was used throughout. Stock solution with Ca^2+-EGTA contained 150 mM NaCl, 5.99 mM Ca(OH)2, 5 mM EGTA, and 10 mM HEPES at pH 7.40. Stock solution with EGTA contained 150 mM NaCl, 5 mM EGTA, and 10 mM HEPES at pH 7.40. Free Ca^2+ concentrations were adjusted by mixing the stock solutions at the required ratios calculated using the WEBMAXC program (http://web.stanford.edu/~cpatton/webmaxcS.htm). Patch pipettes were filled with the stock solution with Ca^2+-EGTA, which has a free Ca^2+ concentration of 1 mM. 1PBC (ChemBridge) stock was reconstituted in anhydrous DMSO (Sigma-Aldrich) at 100 mM and stored at −20 °C. Working solutions with 1PBC were prepared by serial dilution. Unless otherwise stated, experiments were performed at a saturating Ca^2+ concentration as shown in Supplementary Table 1 and the primary data were corrected for current rundown as described previously[21],[25].
Concentration-response relations, obtained from the ratio of the I-V plots before and after the application of the blocker, were fitted to the Hill equation,1 I/Imax=1/1+IC50/[blocker]^h where I/Imax is the normalized current responses, IC50 defines the concentration at which inhibition is at its half-maximum, and h is the Hill coefficient.

## N#Cc1c(C(F)(F)F)cc(O)n2c1nc1ccccc12 [1PBC]
-60 mV
  remaining activity at 30 µM: 39.5%
  remaining activity at 100 µM: 16%
-80 mV
  remaining activity at 30 µM: 43.8%
  remaining activity at 100 µM: 18.7%
-100 mV
  remaining activity at 30 µM: 47.1%
  remaining activity at 100 µM: 21.8%
-120 mV
  remaining activity at 30 µM: 51.5%
  remaining activity at 100 µM: 25%
-140 mV
  remaining activity at 30 µM: 54.7%
  remaining activity at 100 µM: 27.8%
0 mV
  remaining activity at 100 µM: 9.46%
20 mV
  remaining activity at 100 µM: 7.3%
40 mV
  remaining activity at 100 µM: 6.78%
60 mV
  remaining activity at 100 µM: 6.85%
80 mV
  remaining activity at 100 µM: 6.35%
  log-fold IC50 (change of mutant vs WT): 0.6263
100 mV
  remaining activity at 100 µM: 6.17%
120 mV
  remaining activity at 100 µM: 6.44%
140 mV
  remaining activity at 100 µM: 6.48%
-20 mV
  remaining activity at 100 µM: 11.6%
-40 mV
  remaining activity at 100 µM: 13.7%
20 mV, 15 µM Ca2+
  IC50: 9.55 µM
40 mV, 15 µM Ca2+
  IC50: 8.65 µM
60 mV, 15 µM Ca2+
  IC50: 8.16 µM
80 mV, 15 µM Ca2+
  IC50: 8.02 µM
100 mV, 15 µM Ca2+
  IC50: 8.37 µM
120 mV, 15 µM Ca2+
  IC50: 8.93 µM
140 mV, 15 µM Ca2+
  IC50: 9.55 µM
-20 mV, 15 µM Ca2+
  IC50: 13.1 µM
-40 mV, 15 µM Ca2+
  IC50: 15.6 µM
-60 mV, 15 µM Ca2+
  IC50: 18.6 µM
-80 mV, 15 µM Ca2+
  IC50: 22 µM
-100 mV, 15 µM Ca2+
  IC50: 25.7 µM
-120 mV, 15 µM Ca2+
  IC50: 30.4 µM
-140 mV, 15 µM Ca2+
  IC50: 34.9 µM
V543A, V 0 mV
  IC50: 11.2 µM
V543A, V 20 mV
  IC50: 9.55 µM
V543A, V 40 mV
  IC50: 8.65 µM
V543A, V 60 mV
  IC50: 8.16 µM
V543A, V 80 mV
  IC50: 8.02 µM
V543A, V 100 mV
  IC50: 8.37 µM
V543A, V 120 mV
  IC50: 8.93 µM
V543A, V 140 mV
  IC50: 9.55 µM
V543A, V -20 mV
  IC50: 13.1 µM
V543A, V -40 mV
  IC50: 15.6 µM
V543A, V -60 mV
  IC50: 18.6 µM
V543A, V -80 mV
  IC50: 22 µM
V543A, V -100 mV
  IC50: 25.7 µM
V543A, V -120 mV
  IC50: 30.4 µM
V543A, V -140 mV
  IC50: 34.9 µM
